According to article PMC7887068 (Peptides, 2021):
Like-named read-outs stand apart in the source and are kept apart here.

What was measured:
[1] = biological target: T1, recombinant human ACE2 (rhACE2) (Homo sapiens, UniProt Q9BYF1); assay: MLN-4760 inhibition of rhACE2 metabolism of angiotensin peptides; type: biochemical
ACE2 = settings: read-out: half maximum inhibitory concentration (IC50); cited from earlier work
[2] = test system: Human neutrophil collagenase (matrix metalloproteinase 8, MMP8); settings: 10 mM zinc; activity increases up to 100 μM zinc; cited from earlier work
[3] = biological target: T1, recombinant human ACE2 (rhACE2); assay: Zinc inhibition of rhACE2 metabolism of Ang II to Ang 1–7; type: biochemical
[4] = biological target: T1, recombinant human ACE2 (rhACE2); settings: pH 7.0
[5] = test system: CC[C@H](C)[C@H](NC(=O)[C@H](Cc1ccc(O)cc1)NC(=O)[C@@H](NC(=O)[C@H](CCCNC(=N)N)NC(=O)[C@@H](N)CC(=O)O)C(C)C)C(=O)N[C@@H](Cc1cnc[nH]1)C(=O)N1CCC[C@H]1C(=O)N[C@@H](Cc1ccccc1)C(=O)O; type: biochemical, human; settings: other: average of the two series (Tables 2 and 3), Ang II to Ang 1–7

T1 sequence (Q9BYF1 18-740 limits assumed): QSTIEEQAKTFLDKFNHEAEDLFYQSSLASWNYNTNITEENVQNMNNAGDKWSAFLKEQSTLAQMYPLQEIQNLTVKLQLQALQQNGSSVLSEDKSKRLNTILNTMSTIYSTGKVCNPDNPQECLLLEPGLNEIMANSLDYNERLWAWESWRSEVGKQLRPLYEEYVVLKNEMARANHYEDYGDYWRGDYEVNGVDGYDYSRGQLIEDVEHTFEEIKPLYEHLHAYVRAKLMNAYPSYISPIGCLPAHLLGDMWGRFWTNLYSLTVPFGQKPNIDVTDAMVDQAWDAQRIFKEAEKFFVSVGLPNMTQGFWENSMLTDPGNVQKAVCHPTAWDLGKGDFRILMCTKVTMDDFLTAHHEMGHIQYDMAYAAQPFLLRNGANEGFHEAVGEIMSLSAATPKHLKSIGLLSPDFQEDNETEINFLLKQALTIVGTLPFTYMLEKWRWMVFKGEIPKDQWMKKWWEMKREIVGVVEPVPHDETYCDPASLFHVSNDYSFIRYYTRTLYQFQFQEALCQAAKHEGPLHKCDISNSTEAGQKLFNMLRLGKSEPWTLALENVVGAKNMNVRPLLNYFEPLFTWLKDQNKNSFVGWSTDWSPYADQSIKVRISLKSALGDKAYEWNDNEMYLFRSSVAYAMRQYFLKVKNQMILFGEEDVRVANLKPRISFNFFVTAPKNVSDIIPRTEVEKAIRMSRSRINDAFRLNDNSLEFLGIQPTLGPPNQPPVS

In the case of `CC(C)C[C@H](N[C@@H](Cc1cncn1Cc1cc(Cl)cc(Cl)c1)C(=O)O)C(=O)O` [MLN-4760], the “inhibition of metabolism of Ang II to Ang 1–7” value ([1]; 1 μM MLN-4760) is listed as “nearly all”, the inhibition at 1 µM ([1]; read-out: inhibition of rhACE2 activity) is listed as about 90% and the IC50 (ACE2) is listed as 0.4 nM.
In the case of `CC(=O)[O-].CC(=O)[O-].[Zn+2]` [zinc, zinc acetate], the collagenase activity remaining [2] is given as ~ 20%, the “inhibition of ACE2 activity” value ([3]; 1 mM zinc) is given as “completely” and the IC50 ([3]; read-out: IC50 for inhibition of rhACE2 metabolism of Ang II to Ang 1–7, zinc 1 to 1000 μM, 100 μM Ang II, rhACE2 48.4 ng/ml (569 pM), 50 mM Hepes, 100 mM NaCl, pH 7.0, 30 min, 37°C, mean ± SEM, n=2) is given as 69.1 ± 1.1 µM. The “Log IC50 for inhibition of rhACE2 metabolism of Mca-APK(dnp)” value (“Log IC50 for inhibition” for short) ([4]; HEPES buffer) was −3.77, the “Log IC50 for inhibition” value ([4]; MES buffer) was −3.85 and the “Log IC50 for inhibition” value ([4]; Tris buffer) was −3.82.
In the case of “recombinant human ACE2 (rhACE2) (Homo sapiens)”, the Km [5] is reported as 8.47 µM and the kcat/Km [5] is reported as 1.02 μM^−1,sec^−1.
